Experimental findings from US9758550B2, “Cobalamin acquisition protein and use thereof” (Woods Hole Oceanographic Institution, priority 2012, dated 2017) are described below.

The subject of experiment [1] is T. pseudonana. Kind of experiment: Re-supply experiment, growth via in vivo fluorescence. The class given is cell-based, Thalassiosira pseudonana. The method, then:
(§1) A. Re-supply Experiment: For both colimitation experiments (T. pseudonana and P. tricornutum), each remaining culture was split in four just after the protein harvest time point. For the T. pseudonana study, the cultures were re-supplied with either 1) nothing, 2) 100 pM B12, 3) 400 nM Fetotal, or 4) both 100 pM B12 and 400 nM Fe. For the P. tricornutum study, the cultures were re-supplied with either 1) nothing, 2) 100 pM B12, 3) 100 nM Fetotal, or 4) both 100 pM B12 and 100 nM Fe.
(§2) For both studies, each culture was monitored for growth via in vivo fluorescence.

The test system of experiment [2] is P. tricornutum. The method, then: as §1, §2
Experiment [3] deals with P. tricornutum cells. The experiment in a line: Cobalamin (57Co-B12) uptake rate in P. tricornutum cell lines overexpressing CBA1. The class given is cell-based, Phaeodactylum tricornutum. Particulars: CBA1 overexpression vs wild type and Urease-OE1; exponentially growing cells, B12-replete (100 pM B12), 24 hours. On the procedure: B12 Uptake Rate Assessments: Inorganic ^57Co was removed from a carrier-free ^57Co-B12 stock solution (MP Biomedicals) via Chelex-100 (Price et al. (1988/1989) “Preparation and Chemistry of the Artificial Algal Culture Medium Aquil,” Biol Oceanogr 6: 443-461) and the remaining solution was used as a radiotracer in cultures of P. tricornutum. Strains (wild type, two cell lines overexpressing CBA1_48322 and one line overexpressing urease) were grown through three successive transfers into media as described above, with 100 pM B12 and 80 μg/mL zeocin added (zeocin not added to wild type). When the cells were in mid-exponential growth in the third transfer, each strain was used to inoculate (3%) three 28 mL polycarbonate tubes containing 20 mL of growth media with 100 pM B12 and 80 μg/mL zeocin and allowed to acclimate for 3 hours. […] B12 uptake was measured by assessing the percentage of added tracer that was taken up into the particulate fraction via gamma counting as previously described (Bertrand et al. (2007) supra) and assuming that total B12 concentrations were 100 pM for the period of uptake. Cell growth was monitored by fluorescence and then translated to cell number via calibration curves created during growth of the 3rd transfer. […]

Like-named read-outs stand apart in the source and are kept apart here.

As for `C/C1=C2/[N-][C@H]([C@H](CC(N)=O)[C@@]2(C)CCC(=O)NC[C@H](C)OP(=O)([O-])O[C@H]2[C@@H](O)[C@@H](n3cnc4cc(C)c(C)cc43)O[C@@H]2CO)[C@]2(C)N=C(/C(C)=C3N=C(/C=C4N=C1[C@@H](CCC(N)=O)C\4(C)C)[C@@H](CCC(N)=O)[C@]\3(C)CC(N)=O)[C@@H](CCC(N)=O)[C@]2(C)CC(N)=O.[Co+2]` (stereo in doubt) [cobalamin], in experiment [1] (low cobalamin culture re-supplied with 100 pM B12), the growth after re-supply entry is “rescued the growth”.

Regarding iron, the growth after re-supply entry in experiment [2] (low cobalamin/low Fe culture, iron addition alone (100 nM Fe total)) was “rescued”; in experiment [2] (low iron culture re-supplied with 100 nM Fe total), “rescued the growth”; in experiment [1] (low iron culture re-supplied with 400 nM Fe total), “rescued the growth”.

B1: CBA1: cobalamin acquisition protein of P. tricornutum (isoform Pt48322), overexpressed as a YFP fusion in the native host (protein, listed as Phaeodactylum tricornutum)
chain: DEPPACLTSTADLSVDIFTDKVEPLFSQGWNVTYHNTYKIANNLFDNTTYLLYQCGSTPPADVVDNGNFNAVLEIPLSNVGLSQTPHIGFMEQLELVDEIAAFLTDTDFISSPCFLDEIAAGNVLTLVEPSEGVDAPATGNTALSAGTVAFVASFTQVPFDNTVNIQEYSELTNVAVFEWVKFFSVFFNKEHTANQVVEAAESRFDCVAQNAGAVQADNMPVKPVVLWAYYSDFCGGWDVAECPNYYCEFANACGAEIISSTEGNTTVCGAPYMTTEELVELGKDADHWIYPSSNWDTASETFGEQLQNMKAVQDQQVFDYQASGENAWFEQRYAEYYNVLADFCAVVGTTQPLTGRSWFRNVFTEPVGSLPDCSPTQSANILDDVHICFLPTTGGAAAGGGSGSGGSSAKAIAVGTAALAAGLLSLIHVLLF
modifications: YFP fusion
notes: cobalamin acquisition protein of P. tricornutum (isoform Pt48322), overexpressed as a YFP fusion in the native host
Turning to B1, in experiment [3], the “enhancement of cell specific radiolabeled cobalamin uptake rates” value fell in the range of 2 to 3 fold.
